Data as given in US20090253709A1 (NATIONAL DEFENSE MEDICAL CENTER, priority 2008, published 2009).

Key:
Format in all cases: cell-based
HOP-92 = assay: In vitro cytotoxicity, Development Therapeutics Program; conditions: HOP-92, non-small cell lung cancer; 1.0×10^−5 M
Source text: (§1) From the in vitro experiments of the Development Therapeutics Program of the Cancer Research Institute, the United States, it was known that the synthetic heterocyclic anthraquinone derivatives of the present invention have different inhibition levels to the different cancer cell lines under the concentration of 1.0×10^−5 M. Please refer to Table 2, which is the result of in vitro cytotoxicity of 2,7-disubstituted anthraquinone derivatives of the present invention.

SN12C = assay: as above; conditions: renal cancer, 1.0×10^−5 M
Source text: as §1

SK-MEL-5 = assay: as above; conditions: SK-MEL-5, melanoma; 1.0×10^−5 M
Source text: as §1

NCI/ADR-RES = assay: as above; conditions: breast cancer, 1.0×10^−5 M
Source text: as §1

HOP-62 = assay: as above; conditions: HOP-62, non-small cell lung cancer; 1.0×10^−5 M
Source text: as §1

NCI-H23 = assay: as above; conditions: NCI-H23, non-small cell lung cancer; 1.0×10^−5 M
Source text: as §1

OVCAR-5 = assay: as above; conditions: OVCAR-5, ovarian cancer; 1.0×10^−5 M
Source text: as §1

MCF7 = assay: as above; conditions: MCF7, breast cancer; 1.0×10^−5 M
Source text: as §1

TK-10 = assay: as above; conditions: TK-10, renal cancer; 1.0×10^−5 M
Source text: as §1

SF-295 = assay: as above; conditions: SF-295, CNS cancer; 1.0×10^−5 M
Source text: as §1

SK-MEL-28 = assay: as above; conditions: SK-MEL-28, melanoma; 1.0×10^−5 M
Source text: as §1

HT29 = assay: as above; conditions: HT29, colon cancer; 1.0×10^−5 M
Source text: as §1

U251 = assay: as above; conditions: U251, CNS cancer; 1.0×10^−5 M
Source text: as §1

SK-OV-3 = assay: as above; conditions: SK-OV-3, ovarian cancer; 1.0×10^−5 M
Source text: as §1

NCl-H522 = assay: as above; conditions: NCl-H522, non-small cell lung cancer; 1.0×10^−5 M
Source text: as §1

T-47D = assay: as above; conditions: breast cancer, 1.0×10^−5 M
Source text: as §1

A498 = assay: as above; conditions: A498, renal cancer; 1.0×10^−5 M
Source text: as §1

786-0 = assay: as above; conditions: 786-0, renal cancer; 1.0×10^−5 M
Source text: as §1

RPMI-8226 = assay: as above; conditions: RPMI-8226, leukemia; 1.0×10^−5 M
Source text: as §1

OVCAR-8 = assay: as above; conditions: OVCAR-8, ovarian cancer; 1.0×10^−5 M
Source text: as §1

UACC-257 = assay: as above; conditions: UACC-257, melanoma; 1.0×10^−5 M
Source text: as §1

ACHN = assay: as above; conditions: renal cancer, 1.0×10^−5 M
Source text: as §1

SW-620 = assay: as above; conditions: SW-620, colon cancer; 1.0×10^−5 M
Source text: as §1

M14 = assay: as above; conditions: M14, melanoma; 1.0×10^−5 M
Source text: as §1

HCT-116 = assay: as above; conditions: HCT-116, colon cancer; 1.0×10^−5 M
Source text: as §1

HL-60(TB) = assay: as above; conditions: leukemia, 1.0×10^−5 M
Source text: as §1

NCl-H226 = assay: as above; conditions: NCl-H226, non-small cell lung cancer; 1.0×10^−5 M
Source text: as §1

SF-268 = assay: as above; conditions: SF-268, CNS cancer; 1.0×10^−5 M
Source text: as §1

SNB-19 = assay: as above; conditions: SNB-19, CNS cancer; 1.0×10^−5 M
Source text: as §1

BT-549 = assay: as above; conditions: BT-549, breast cancer; 1.0×10^−5 M
Source text: as §1

K-562 = assay: as above; conditions: K-562, leukemia; 1.0×10^−5 M
Source text: as §1

CAK1-1 = assay: as above; conditions: CAK1-1, renal cancer; 1.0×10^−5 M
Source text: as §1

NCl-H322M = assay: as above; conditions: non-small cell lung cancer, 1.0×10^−5 M
Source text: as §1

PC-3 = assay: as above; conditions: PC-3, prostate cancer; 1.0×10^−5 M
Source text: as §1

MDA-MB-231/ATCC = assay: as above; conditions: breast cancer, 1.0×10^−5 M
Source text: as §1

[1] = tested on: different cancer cell lines; assay: In vitro cytotoxicity, Development Therapeutics Program, summary over all cell lines; conditions: 1.0×10^−5 M
Source text: as §1

Compound | Cellular growth rate (%) (HOP-92) | Cellular growth rate (%) (SN12C) | Cellular growth rate (%) (SK-MEL-5) | Cellular growth rate (%) (NCI/ADR-RES) | Cellular growth rate (%) (HOP-62) | Cellular growth rate (%) (NCI-H23) | Cellular growth rate (%) (OVCAR-5) | Cellular growth rate (%) (MCF7) | Cellular growth rate (%) (TK-10) | Cellular growth rate (%) (SF-295) | Cellular growth rate (%) (SK-MEL-28) | Cellular growth rate (%) (HT29) | Cellular growth rate (%) (U251) | Cellular growth rate (%) (SK-OV-3) | Cellular growth rate (%) (NCl-H522) | Cellular growth rate (%) (T-47D) | Cellular growth rate (%) (A498) | Cellular growth rate (%) (786-0) | Cellular growth rate (%) (RPMI-8226) | Cellular growth rate (%) (OVCAR-8) | other results
O=C1c2ccc(NC(=O)C3CC3)cc2C(=O)c2cc(NC(=O)C3CC3)ccc21 [Compound 32, 2,7-Bis(cyclopropanecarbonamido)anthraquinone] | 86.18 | 82.93 | 75.67 | 90.83 | 91.64 | 95.85 | 112.01 | 77.38 | 136.20 | 86.60 | 108.51 | 106.26 | 72.62 | 93.16 | 89.41 | 79.75 | 92.35 | 94.92 | 88.38 | 94.34 | Cellular growth rate (%) (UACC-257): 107.63%; Cellular growth rate (%) (ACHN): 86.70%; Cellular growth rate (%) (SW-620): 104.75%; Cellular growth rate (%) (M14): 98.89%; Cellular growth rate (%) (HCT-116): 87.14%; Cellular growth rate (%) (HL-60(TB)): 62.45%; Cellular growth rate (%) (NCl-H226): 100.60%; Cellular growth rate (%) (SF-268): 95.09%; Cellular growth rate (%) (SNB-19): 98.79%; Cellular growth rate (%) (BT-549): 92.51%; Cellular growth rate (%) (K-562): 91.60%; Cellular growth rate (%) (CAK1-1): 88.43%; Cellular growth rate (%) (NCl-H322M): 105.77%; Cellular growth rate (%) (PC-3): 106.89%; Cellular growth rate (%) (MDA-MB-231/ATCC): 97.05%; Cellular growth rate (%), Mean [1]: 91.54%
CN(C)CC(=O)Nc1ccc2c(c1)C(=O)c1cc(NC(=O)CN(C)C)ccc1C2=O [Compound 8, 2,7-Bis[2-(dimethylamino)acetamido]anthraquinone] | 56.14 | 27.99 | 82.59 | 47.84 | 28.97 | 51.78 | 73.15 | 7.92 | 73.47 | −83.51 | 32.11 | 11.73 | 16.26 | 70.26 | 61.82 | 24.62 | −6.39 | 68.60 | 34.97 | 32.31 | Cellular growth rate (%) (UACC-257): −1.84%; Cellular growth rate (%) (ACHN): 66.43%; Cellular growth rate (%) (SW-620): 23.36%; Cellular growth rate (%) (M14): 75.04%; Cellular growth rate (%) (HCT-116): 19.07%; Cellular growth rate (%) (HL-60(TB)): −64.97%; Cellular growth rate (%) (NCl-H226): 89.14%; Cellular growth rate (%) (SF-268): 64.92%; Cellular growth rate (%) (SNB-19): 79.57%; Cellular growth rate (%) (BT-549): 85.36%; Cellular growth rate (%) (K-562): 34.91%; Cellular growth rate (%) (CAK1-1): 59.26%; Cellular growth rate (%) (NCl-H322M): 32.42%; Cellular growth rate (%) (PC-3): 59.00%; Cellular growth rate (%) (MDA-MB-231/ATCC): 4.49%; Cellular growth rate (%), Mean [1]: 28.70%
CC(=O)Nc1ccc2c(c1)C(=O)c1cc(NC(C)=O)ccc1C2=O [Compound 26, 2,7-Bis(acetamido)anthraquinone] | 101.26 | 113.35 | 108.87 | 114.26 | 110.60 | 94.24 | 102.27 | 96.90 | 118.38 | 103.25 | 117.60 | 107.23 | 95.14 | 101.12 | 93.56 | 96.17 | 115.60 | 97.72 | 121.47 | 99.85 | Cellular growth rate (%) (UACC-257): 26.97%; Cellular growth rate (%) (ACHN): 96.93%; Cellular growth rate (%) (SW-620): 103.21%; Cellular growth rate (%) (M14): 105.11%; Cellular growth rate (%) (HCT-116): 101.91%; Cellular growth rate (%) (HL-60(TB)): 38.74%; Cellular growth rate (%) (NCl-H226): 104.51%; Cellular growth rate (%) (SF-268): 113.68%; Cellular growth rate (%) (SNB-19): 94.40%; Cellular growth rate (%) (BT-549): 93.29%; Cellular growth rate (%) (K-562): 98.54%; Cellular growth rate (%) (CAK1-1): 105.10%; Cellular growth rate (%) (NCl-H322M): 97.50%; Cellular growth rate (%) (PC-3): 102.73%; Cellular growth rate (%) (MDA-MB-231/ATCC): 103.99%; Cellular growth rate (%), Mean [1]: 99.06%
CCN(CC)CCC(=O)Nc1ccc2c(c1)C(=O)c1cc(NC(=O)CCN(CC)CC)ccc1C2=O [Compound 16, 2,7-Bis[3-(diethylamino)propionamido]anthraquinone] | 9.70 | 8.63 | 82.75 | 59.52 | 11.65 | 30.34 | 33.63 | 9.34 | 17.16 | −19.91 | 2.56 | 3.30 | 21.65 | 44.02 | 27.98 | 68.62 | −38.76 | 24.72 | −29.02 | 4.30 | Cellular growth rate (%) (UACC-257): −14.46%; Cellular growth rate (%) (ACHN): 11.09%; Cellular growth rate (%) (SW-620): 16.93%; Cellular growth rate (%) (M14): 62.79%; Cellular growth rate (%) (HCT-116): −32.45%; Cellular growth rate (%) (HL-60(TB)): 14.01%; Cellular growth rate (%) (NCl-H226): 49.89%; Cellular growth rate (%) (SF-268): 35.18%; Cellular growth rate (%) (SNB-19): 75.84%; Cellular growth rate (%) (BT-549): 57.04%; Cellular growth rate (%) (K-562): 8.10%; Cellular growth rate (%) (CAK1-1): 3.27%; Cellular growth rate (%) (NCl-H322M): 44.75%; Cellular growth rate (%) (PC-3): 13.59%; Cellular growth rate (%) (MDA-MB-231/ATCC): 31.32%; Cellular growth rate (%), Mean [1]: 16.33%
